Test results: the NIST ThermoML archive (doi:10.1016/j.jct.2017.05.020)

Legend:
[1] = wn = mass fraction of the nth substance listed; conditions: 100 kPa, Liquid, Vibrating tube method
[2] = refractive index (Na D-line) (dimensionless); wn = mass fraction of the nth substance listed; conditions: 100 kPa, Liquid, Standard Abbe refractometry
[3] = refractive index (Na D-line) (dimensionless); conditions: 100 kPa, Liquid, Standard Abbe refractometry
[4] = 100 kPa, Liquid, Vibrating tube method

C=CC[P+](c1ccccc1)(c1ccccc1)c1ccccc1.[Br-] [allyltriphenylphosphonium bromide] + OCCOCCOCCO
Conditions	mass density, w1 = 0.1375 [kg/m3]	mass density, w1 = 0.2033 [kg/m3]	mass density, w1 = 0.3895 [kg/m3]	refractive index, w1 = 0.1375	refractive index, w1 = 0.2033	refractive index, w1 = 0.3895
[1], 293.15 K	1146.2	1159.2	1190.8	–	–	–
[1], 298.15 K	1142.5	1155.5	1187.1	–	–	–
[1], 303.15 K	1138.8	1151.7	1183.4	–	–	–
[1], 308.15 K	1135	1148	1179.7	–	–	–
[1], 313.15 K	1131.3	1144.2	1176.1	–	–	–
[1], 318.15 K	1127.5	1140.5	1172.4	–	–	–
[1], 323.15 K	1123.7	1136.7	1168.7	–	–	–
[1], 328.15 K	1119.9	1133	1165	–	–	–
[1], 333.15 K	1116.1	1129.2	1161.3	–	–	–
[1], 338.15 K	1112.2	1125.5	1157.6	–	–	–
[1], 343.15 K	1108.4	1121.7	1153.9	–	–	–
[2], 293.15 K	–	–	–	1.4803	1.4945	1.5314
[2], 298.15 K	–	–	–	1.4786	1.4927	1.5297
[2], 303.15 K	–	–	–	1.4769	1.4909	1.528
[2], 308.15 K	–	–	–	1.4752	1.4892	1.5263
[2], 313.15 K	–	–	–	1.4735	1.4874	1.5245
[2], 318.15 K	–	–	–	1.4717	1.4857	1.5228
[2], 323.15 K	–	–	–	1.47	1.4839	1.5211
[2], 328.15 K	–	–	–	1.4683	1.4822	1.5193
[2], 333.15 K	–	–	–	1.4666	1.4804	1.5176
[2], 338.15 K	–	–	–	1.4649	1.4787	1.5158
[2], 343.15 K	–	–	–	1.4632	1.4769	1.5141

OCCOCCOCCO [triethylene glycol]
Conditions	mass density, [4] [kg/m3]	refractive index, [3]
293.15 K	1124.6	1.4576
298.15 K	1120.8	1.4558
303.15 K	1116.9	1.4541
308.15 K	1113	1.4523
313.15 K	1109.1	1.4505
318.15 K	1105.2	1.4488
323.15 K	1101.3	1.4469
328.15 K	1097.4	1.445
333.15 K	1093.5	1.4434
338.15 K	1089.6	1.4417
343.15 K	1085.6	1.4399

OCCOCCO [diethylene glycol] + C=CC[P+](c1ccccc1)(c1ccccc1)c1ccccc1.[Br-]
w2 = 0
Conditions	mass density, [1] [kg/m3]	refractive index, [2]
293.15 K	1116.5	1.4477
298.15 K	1113	1.4461
303.15 K	1109.4	1.4446
308.15 K	1105.8	1.443
313.15 K	1102.2	1.4415
318.15 K	1098.6	1.44
323.15 K	1095	1.4384
328.15 K	1091.4	1.4368
333.15 K	1087.7	1.4351
338.15 K	1084	1.4334
343.15 K	1080.3	1.4317
